The values below come from patent publication US20010056104A1, “Treatment of ocular hypertension and glaucoma” (priority 2000, published 2001).

For data set [1] the following is noted: long-term monkey trial, preliminary published results; cited from earlier work.
Data set [2] relates to prostaglandin receptor sites in bovine corpus luteal membranes. Description: Ligand binding assay in bovine corpus luteal membranes. The note with it: for binding to PG receptor sites: in words. How it is done:
(§1) In ligand binding studies, the specificity of labeled unoprostone isopropyl and the metabolite binding to prostaglandin receptor sites in bovine corpus luteal membranes was determined. This tissue expresses most of the PG receptors including an abundance of FP receptors. In signal transduction studies, the mobilization of intracellular calcium using Fluorescence Imaging technique in the primary culture of human ciliary muscle cells and cyclic AMP generation in rabbit iris-ciliary body was measured.
This method is well described in the literature. […] Free unbound ligands were separated by rapid filtration using a millipore filtration assembly. Membrane bound radioactivity retained by the filter was counted. It is important to define the following terms for appreciation of the binding data:
Total binding is defined as the amount bound in the absence of unlabeled ligand.
Specific binding is defined as the binding displaced by unlabeled ligand.
Non-specific binding is the binding not displaced by unlabeled ligand.

Data set [3] relates to human ciliary muscle cells. Description: Intracellular calcium mobilization (Fura 2-AM) in human ciliary muscle cells. Type of data set: cell-based. As to conditions: for mobilization of intracellular calcium: concentrations ranging from 10-1000 nM; for affinity for EP1 or FP or TP receptors: suggested by inability to mobilize intracellular calcium. As to the method:
as §1
Human ciliary muscle cells at confluency were loaded with Fura 2-AM. Cells in a petri dish were put in a jacketed chamber mounted on the microscope platform. The chamber was maintained at 37° C. by thermostatically controlled water circulating through the chamber jacket. The cells were then exposed to the excitation wavelengths of 334 and 380 nm with an emission wavelength of 510 nm. Cells were perfused with HEPES buffer with or without test compounds. The intracellular calcium was visualized and photographed using Attofluor RatioVision software program and Zeiss fluorescence microscope.
A general note: A change in cytosolic calcium serves as a functional read-out for many receptors and channels.

For data set [4], the system named is PGF2α receptors. As to conditions: free acid form; contraction of cat iris sphincter; cited from earlier work.
Data set [5] has as its target T1, PGF2α receptors (Bos taurus, UniProt P37289).
T1 construct: host or cells: bovine corpus luteum
As to conditions: free acid form; bovine corpus luteum; cited from earlier work.

The mark [6] stands for this setting: competing ligand unoprostone isopropyl 2.5 μM.
The mark [7] stands for this setting: competing ligand unoprostone isopropyl 5.0 μM.
The mark [8] stands for this setting: competing ligand unoprostone isopropyl 8.0 μM.
Where [9] appears, read: competing ligand unoprostone isopropyl 16.0 μM.

Where two headings read alike, the source gives them in different places.

T1 sequence (P37289 whole entry): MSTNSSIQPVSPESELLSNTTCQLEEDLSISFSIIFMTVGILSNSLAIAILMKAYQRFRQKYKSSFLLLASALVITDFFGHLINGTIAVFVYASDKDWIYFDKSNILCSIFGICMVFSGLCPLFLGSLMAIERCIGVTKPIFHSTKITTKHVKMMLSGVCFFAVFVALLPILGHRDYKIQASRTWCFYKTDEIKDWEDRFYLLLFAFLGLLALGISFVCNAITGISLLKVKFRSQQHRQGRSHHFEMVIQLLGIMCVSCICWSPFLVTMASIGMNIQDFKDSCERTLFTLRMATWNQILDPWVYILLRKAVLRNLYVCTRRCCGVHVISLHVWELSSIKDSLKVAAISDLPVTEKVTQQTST

Consider `CCCCCCCC(=O)CC[C@@H]1[C@@H](C/C=C\CCCC(=O)OC(C)C)[C@@H](O)C[C@H]1O` [unoprostone isopropyl, 13,14-dihydro-15-keto-20-ethyl PGF2α isopropyl ester], for which, in data set [1], the iridic pigmentation entry is reported as “no iridic pigmentation”. Besides, the figures for the “specific binding to bovine corpus luteal membranes (in words)” value in data set [2] and in data set [2] (listed as 3H-unoprostone isopropyl) were “no specific binding sites” and “no specific binding”, respectively. In addition, the Total Binding in data set [2] (at 5 minutes) is 21.0 fmoles/mg protein; in data set [2] (membrane protein conc. 50 μg), 13.0 ± 2.0 (3) fmoles/mg protein; in data set [2] (membrane protein conc. 100 μg), 23.0 ± 6.0 (3) fmoles/mg protein; in data set [2] (membrane protein conc. 200 μg), 32.0 ± 8.0 (3) fmoles/mg protein; in data set [2] (radioligand conc. 8.0 nM) it was 19.4 ± 2.0 ƒmoles/mg protein; in data set [2] (radioligand conc. 16.0 nM), 25.5 ± 4.0 ƒmoles/mg protein. Also, the “Total Binding” value in data set [2] (radioligand conc. 32.0 nM) is reported as 40.0 ± 7.0 ƒmoles/mg protein. Moreover, the “Specific Binding of 3H-unoprostone isopropyl” value in data set [2] (setting [6]), in data set [2] (setting [7]), in data set [2] (setting [8]) and in data set [2] (setting [9]) was 0 each time. Moreover, the “Total 3H-unoprostone isopropyl binding” value was 7.0 ƒmoles/mg protein in data set [2] (setting [6]), 6.5 ƒmoles/mg protein in data set [2] (setting [7]), 6.7 ƒmoles/mg protein in data set [2] (setting [8]) and 7.6 ƒmoles/mg protein in data set [2] (setting [9]). Further, the “displacement of bound 3H-unoprostone isopropyl by unlabeled competing ligand” value in data set [2] (competition studies) is “did not displace”. Further, the “binding to DP, EP1, EP2, EP3, IP and TP receptor sites” value in data set [2] (concluded from competition studies) is on record as “does not bind”. Moreover, in data set [2], the “binding to PG receptor sites” value is “does not bind”. The “Specific Binding” value in data set [2] (radioligand conc. 8.0 nM), in data set [2] (radioligand conc. 16.0 nM) and in data set [2] (radioligand conc. 32.0 nM) was 0 fmoles/mg protein in each case. Besides, the “change of total binding with time” value in data set [2] (up to 60 minutes) is “did not increase with time”. Also, in data set [3], the “mobilization of intracellular calcium” value was “did not mobilize”. In data set [3], the “affinity for EP1 or FP or TP receptors” value was “no affinity”.
Consider `CCCCCCCC(=O)CC[C@@H]1[C@@H](C/C=C\CCCC(=O)O)[C@@H](O)C[C@H]1O` [metabolite], for which, in data set [4], the “agonistic activity to PGF2α receptors relative to PGF2α” value is 1/1600. The “binding to PG receptor sites” value in data set [2] is given as “does not bind”. Also, in data set [3], the “mobilization of intracellular calcium” value is “did not mobilize” and the “affinity for EP1 or FP or TP receptors” value is recorded as “no affinity”. In addition, in data set [5], the “binding inhibitory activity relative to PGF2α” value is listed as 1/280.
